{"source": "patent US20250134898A1", "about": "“USE OF MELANOCORTIN-4 RECEPTOR AGONIST IN PREVENTING OR TREATING RARE GENETIC OBESITY DISEASE” (LG CHEM, LTD., priority 2022, published 2025)", "key": {"[1]": {"test_system": "Pomc homozygous knock-out mice", "assay": "Anti-obesity efficacy in high fat diet POMC homozygous deficient mouse model", "type": "in vivo", "conditions": "45 kcal % high-fat diet, 10 mg/kg or 30 mg/kg for about 10 days, FIG. 2", "method": "Pomc homozygous knock-out mice, in which the Pomc gene encoding proopiomelanocortin (POMC) is not expressed, were administered with the test compound at a dose of 10 mg/kg or 30 mg/kg for about 10 days while fed a 45 kcal % high-fat diet (diet with 45 kcal % fat) to determine the anti-obesity efficacy, and the results are shown in FIG. 2."}, "[2]": {"test_system": "Pomc heterozygous knock-out mice", "assay": "Anti-obesity efficacy in high fat diet POMC heterozygous deficient mouse model", "type": "in vivo", "conditions": "60 kcal % high-fat diet, 10 mg/kg or 30 mg/kg for about 3 weeks, FIG. 1", "method": "Pomc heterozygous knock-out mice, in which the Pomc gene encoding proopiomelanocortin (POMC) is not normally expressed, were fed a 60 kcal % high-fat diet (diet with 60 kcal % fat), while administering N-((3S,5S)-1-((3S,4R)-1-(tert-butyl)-4-(4-chlorophenyl)pyrrolidine-3-carbonyl)-5-(morpholine-4-carbonyl)pyrrolidin-3-yl)-N-((1s,4R)-4-methylcyclohexyl)isobutyramide hydrochloride (hereinafter referred to as “test compound”) obtained from the example of preparation at a dose of 10 mg/kg or 30 mg/kg for about 3 weeks to determine the anti-obesity efficacy, and the results are shown in FIG. 1."}}, "data": [{"smiles": "CC(C)C(=O)N([C@H]1C[C@@H](C(=O)N2CCOCC2)N(C(=O)[C@@H]2CN(C(C)(C)C)C[C@H]2c2ccc(Cl)cc2)C1)[C@H]1CC[C@@H](C)CC1.Cl", "note": "[test compound, N-((3S,5S)-1-((3S,4R)-1-(tert-butyl)-4-(4-chlorophenyl)pyrrolidine-3-carbonyl)-5-(morpholine-4-carbonyl)pyrrolidin-3-yl)-N-((1s,4R)-4-methylcyclohexyl)isobutyramide hydrochloride]", "values": [{"measurement": "anti-obesity efficacy", "setting": "[1]", "result": "excellent anti-obesity effects"}, {"measurement": "anti-obesity efficacy", "setting": "[2]", "result": "excellent anti-obesity effects"}]}]}
